Results as given in US7932263B2, “Therapeutic treatment” (AstraZeneca AB, priority 2003, dated 2011).

How the values were obtained:
Assay type in all cases: in vivo, mouse
[1] = system: apo-E knockout mice fed high-cholesterol diet; assay: Quantitative analysis of atherosclerotic plaques (Sudan IV stained aortas); conditions: 1 mg/kg/d of each drug, 12 weeks, vs high-cholesterol diet alone
Procedure: Five pairs of C57BL/6J mice and three pairs of homozygous apo-E knockout mice (on C57BL/6J background) were obtained from Jackson Laboratories (Bar Harbor, Me.). They were bred by brother-sister mating and housed in a room lit from 6:00 AM to 6:00 PM and kept at 21° C. The C57BL/6J mice (n=10) were continued on regular diet for the entire study period. The apo-E knockout mice were divided into four groups. Group 1 (n=10) animals were given high-cholesterol diet (1% cholesterol) alone for 12 weeks since the age of 6 weeks; Group 2 (n=10) animals were given high-cholesterol diet with candesartan (1 mg/kg/d) for 12 weeks since the age of 6 weeks; Group 3 (n=10) animals were given high-cholesterol diet with the rosuvastatin (1 mg/kg/d) for 12 weeks since the age of 6 weeks; Group 4 (n=10) animals were given high-cholesterol diet with candesartan (1 mg/kg/d) and rosuvastatin (1 mg/kg/d) for 12 weeks since the age of 6 weeks. At the end of 12-week-treatment, the mice were sacrificed and subject to studies described below. All experimental procedures were performed in accordance with protocols approved by the institutional Animal Care and Usage Committee of University of Arkansas for Medical Sciences. Quantitative Analysis of Atherosclerotic Plaques At the end of 12-week-treatment, 5 mice from each group were euthanized and the aortas were separated from surrounding tissues. After removal of the adventitial fat tissue, the aortas were opened longitudinally from the aorta arch to the iliac bifurcation, and fixed in 10% formalin for 24 hours. Then the aortas were rinsed in 70% alcohol briefly, stained with Sudan IV solution for 15 minutes, differentiated in 80% alcohol for 20 minutes and washed in running water for 1 hour (Russell L. Techniques for studying atherosclerotic lesion, Lab Invest. 1958; 7:42-47). […] The images were analyzed by soft ware (Image Pro Plus, Media Cybernetics). […] Statistical significance was determined in multiple comparisons among independent groups of data in which ANOVA and the F test indicated the presence of significant differences. […]

[2] = system: MMP-2; assay: MMP-2 expression in aorta by RT-PCR and Western blot; conditions: aorta of apo-E knockout mice, high-cholesterol diet, 1 mg/kg/d of each drug, 12 weeks; vs high-cholesterol diet alone
Procedure: (§1) Five pairs of C57BL/6J mice and three pairs of homozygous apo-E knockout mice (on C57BL/6J background) were obtained from Jackson Laboratories (Bar Harbor, Me.). They were bred by brother-sister mating and housed in a room lit from 6:00 AM to 6:00 PM and kept at 21° C. The C57BL/6J mice (n=10) were continued on regular diet for the entire study period. The apo-E knockout mice were divided into four groups. Group 1 (n=10) animals were given high-cholesterol diet (1% cholesterol) alone for 12 weeks since the age of 6 weeks; Group 2 (n=10) animals were given high-cholesterol diet with candesartan (1 mg/kg/d) for 12 weeks since the age of 6 weeks; Group 3 (n=10) animals were given high-cholesterol diet with the rosuvastatin (1 mg/kg/d) for 12 weeks since the age of 6 weeks; Group 4 (n=10) animals were given high-cholesterol diet with candesartan (1 mg/kg/d) and rosuvastatin (1 mg/kg/d) for 12 weeks since the age of 6 weeks.
(§2) At the end of 12-week-treatment, 5 mice from each group were euthanized and the aortas (from aorta arch to iliac bifurcation) were separated from surrounding tissues and stored on dry ice. Each aorta was cut into four segments, two of which were used to extract total RNA with the single-step acid-guanidinium thiocyanate-phenol-chloroform method as described earlier (27). […]

[3] = system: MMP-9; assay: MMP-9 expression in aorta by RT-PCR and Western blot; conditions: aorta of apo-E knockout mice, high-cholesterol diet, 1 mg/kg/d of each drug, 12 weeks; vs high-cholesterol diet alone
Procedure: as §1, §2

[4] = system: TIMP-2; assay: TIMP-2 protein expression in aorta by Western blot; conditions: aorta of apo-E knockout mice, high-cholesterol diet, 1 mg/kg/d of each drug, 12 weeks; vs high-cholesterol diet alone
Procedure: (§3) Five pairs of C57BL/6J mice and three pairs of homozygous apo-E knockout mice (on C57BL/6J background) were obtained from Jackson Laboratories (Bar Harbor, Me.). They were bred by brother-sister mating and housed in a room lit from 6:00 AM to 6:00 PM and kept at 21° C. The C57BL/6J mice (n=10) were continued on regular diet for the entire study period. The apo-E knockout mice were divided into four groups. […]
(§4) Each mouse aorta was cut into four segments. […] Membranes were washed and then incubated with 1:5000 dilution specific secondary antibody (Amersham Life Science) for 2 hours at room temperature, and the membranes were washed and detected with the ECL system (Amersham Life Science). The relative intensities of protein bands were analyzed by Scan-gel-it software (Li D Y, Zhang Y C, Sawamura T, Mehta J L. Circ Res. 1999; 84:1043-1049).
(§5) All data represent mean of duplicate samples. […] Statistical significance was determined in multiple comparisons among independent groups of data in which ANOVA and the F test indicated the presence of significant differences. […]

[5] = system: MMP-1; assay: MMP-1 expression in aorta by RT-PCR and Western blot; conditions: aorta of apo-E knockout mice, high-cholesterol diet, 1 mg/kg/d of each drug, 12 weeks; vs high-cholesterol diet alone
Procedure: as §1, §2

[6] = system: TIMP-1; assay: TIMP-1 protein expression in aorta by Western blot; conditions: aorta of apo-E knockout mice, high-cholesterol diet, 1 mg/kg/d of each drug, 12 weeks; vs high-cholesterol diet alone
Procedure: as §3, §4, §5

[7] = system: CD40; assay: CD40 expression in aorta by RT-PCR and Western blot; conditions: aorta of apo-E knockout mice, high-cholesterol diet, 1 mg/kg/d of each drug, 12 weeks; vs high-cholesterol diet alone
Procedure: as §1, §2

[8] = system: LOX-1; assay: LOX-1 expression in aorta by RT-PCR and Western blot; conditions: aorta of apo-E knockout mice, high-cholesterol diet, 1 mg/kg/d of each drug, 12 weeks; vs high-cholesterol diet alone
Procedure: as §1, §2

| Compound | decrease of atherosclerosis [1] | MMP-2 expression (mRNA and protein) [2] | MMP-9 expression (mRNA and protein) [3] | TIMP-2 protein expression [4] | MMP-1 expression (mRNA and protein) [5] | extent of atherosclerosis (in words) [1] | TIMP-1 protein expression [6] | CD40 expression (mRNA and protein) [7] | LOX-1 expression (mRNA and protein) [8] |
| --- | --- | --- | --- | --- | --- | --- | --- | --- | --- |
| CCOc1nc2cccc(C(=O)O)c2n1Cc1ccc(-c2ccccc2-c2nnn[nH]2)cc1 [candesartan] | about 35% |  |  |  |  |  |  |  |  |
| CC(C)c1nc(N(C)S(C)(=O)=O)nc(-c2ccc(F)cc2)c1/C=C/[C@@H](O)C[C@@H](O)CC(=O)O [rosuvastatin] | ~25% | decreased MMP-1, -2 and -9 expression (mRNA and protein), albeit modestly | decreased MMP-1, -2 and -9 expression (mRNA and protein), albeit modestly | reduced TIMP-1 and TIMP-2 expression by a small degree | decreased MMP-1, -2 and -9 expression (mRNA and protein), albeit modestly | decreased the extent of atherosclerosis | reduced TIMP-1 and TIMP-2 expression by a small degree | slightly decreased CD40 expression | decreased the LOX-1 expression (mRNA and protein), albeit modestly |
